Assay results reported in patent publication US9861593B2, “Method for treating or preventing dry eye disorders using alkylamino-polyhydroxyalkanes” (Dynamis Pharmaceuticals, Inc., priority 2008, dated 2018).

Test system: goblet cells
Test: Goblet cell density in eye tissue of scopolamine-treated rats (dry eye model), PAS-stained thin sections, blinded grader ratings
Assay type: in vivo, Sprague-Dawley male rats
Protocol: Sprague-Dawley male rats (7 weeks old, average weight=444 g) were treated with subcutaneous (SC) scopolamine hydrobromide in normal saline (n=30, 25 mg/kg injected 3× per day) or nothing (n=4). Scopolamine treated animals received either (a) 50 mM meglumine in the drinking water (n=10), (b) a 3× daily eyemist containing 2% by weight of meglumine hydrochloride (n=10) or (c) a 3× daily eyemist of normal saline (n=10). Treatment was for 4.5 weeks. One animal receiving scopolamine and the meglumine eyemist died just prior to the end of the study, and the eye tissues were not analyzed. Animals were euthanized and the eye orbit and surrounding tissue from both eyes were removed and placed in formalin. Tissues were embedded in paraffin, thin sections prepared, and stained with periodic acid Schiff to more easily visualize the goblet cells.
Animals not treated with scopolamine or with scopolamine and a saline eyemist had the lowest levels of goblet cells. […] The difference in goblet cell density between the untreated animals and those treated with oral meglumine was significant for one grader (p=0.04) and approached significance for the other (p=0.07). The meglumine eye mist referred to in Table 1 was obtained from Piedmont Chemical Industries (High Point, N.C.).

In the case of CNC[C@H](O)[C@@H](O)[C@H](O)[C@H](O)CO [oral meg, meglumine], the “extent of regions containing goblet cells (FIG. 1)” value (scopolamine-dosed rats, oral meglumine versus saline eyemist) is reported as “more extensive regions containing goblet cells” and the “levels of goblet cells compared with the other groups (in words)” value (scopolamine-treated rats, 50 mM meglumine in the drinking water, 4.5 weeks) is reported as “highest levels of goblet cells”.
